# Experimental data taken from patent US11883468B2, “Compositions and methods to suppress tumor growth in bone, prevent cachectic muscle loss, and preserve skeletal integrity” (United States Government As Represented By The Department …, priority 2019, dated 2024).
# Key:
# [1] = test system: MDA-MB-231 BC cells; assay: EVOCA with MDA-MB-231 cells, tumor gene mRNA by PCR; assay type: cell-based, human; details: 7d EVOCA
# Description: FIGS. 7A, 7B, and 7C show the effects of bPTH7-34DD on MDA-MB-231; 7d EVOCA, PCR as done in FIG. 5.
# (§1) EVOCA (ex vivo organ co-culture assay) of breast cancer cells and bone: Segments of neonatal mouse bone are prepared by a modification of Mohammad et al [2008]. Calvariae from euthanized 14 day old Swiss Webster pups are cut into 5 mm disks with a biopsy punch, yielding two disks (hemi-calvariae) per pup, and placed into wells of uncoated 24-well plates. Calvariae from βArr2−/− and +/+ littermates, as available, can be shipped in sterile tubes in standard tissue culture medium by overnight FedEx from the Luttrell laboratory at Medical University of South Carolina. Bones shipped overnight in media survive the shipping and give reproducible results, compared to freshly harvested bones. […] At the end of the incubation, bone are either fixed and decalcified for routine histology or homogenized for RNA isolation with a bead beater, using QIAGEN RNeasy mini kits, converted to cDNA (Biorad iScript,), and analyzed by quantitative PCR using Biorad SYBR green PCR kits and a Biorad iCycler single-color real-time detection system. […] EVOCA cultures can be analyzed by histology and IHC staining. […]
# [2] = test system: MDA-MB-231 breast cancer cells; assay: EVOCA (ex vivo organ co-culture assay of tumor + bone), tumor burden by SSQ-PCR for hRPL32; assay type: cell-based, human; details: 7d EVOCA, wt bones
# Description: 7D EVOCA. Tumor burden by SSQ-PCR for hRPL32.
# as §1, with “bones. Cancer cells (2-10×10^3, depending on cell types and ability to adhere to bones; e.g., 2,000 for MDA-MB-231) are added in 0.5 ml BGJb medium (Life Technologies) +10% fetal calf serum and incubated at 37° C. in 5% CO2.” for “bones.”
# [3] = test system: bone; details: cited from earlier work
# [4] = test system: calvarial osteoblasts; details: osteoblasts from treated mice; cited from earlier work
# [5] = 4 or 8 weeks, once-daily injection
# [6] = continuous infusion, 40 μg/kg/d
SMILES,tumor hPTHrP mRNA [1],MDA-MB-231 tumor growth in bone [2],"cortical bone parameters (periosteal circumference and cortical thickness) [3, 5]","mineral apposition (MAR, BFR) [3, 5]","tibial trabecular bone parameters (BV/TV, trabecular number) [3, 5]","elevation of urinary calcium excretion [3, 6] [×]","mRNA for Dars, aspartyl-tRNA synthetase, in bone [3, 6]","mRNA of Gab 1 in bone [3, 6]",serum osteocalcin ([3]; once-daily injection),osteoblast number and osteoid surface ([3]; quantitative histomorphometry),osteoclast numbers ([3]; quantitative histomorphometry),"anabolic markers of Obl activity (RUNX2, Alk Phos, Col1A1) [4]"
Fc1ccc(Cl)cc1-c1nc(Nc2ccncc2)c2nccnc2n1 [SD208],not seen,,,,,,,,,,,
CC[C@H](C)[C@H](NC(=O)[C@H](CCC(=O)O)NC(=O)[C@H](CO)NC(=O)[C@@H](NC(=O)[C@@H](N)CO)C(C)C)C(=O)N[C@@H](CCC(N)=O)C(=O)N[C@@H](CC(C)C)C(=O)N[C@@H](CCSC)C(=O)N[C@@H](Cc1cnc[nH]1)C(=O)N[C@@H](CC(N)=O)C(=O)N[C@@H](CC(C)C)C(=O)NCC(=O)N[C@@H](CCCCN)C(=O)N[C@@H](Cc1cnc[nH]1)C(=O)N[C@@H](CC(C)C)C(=O)N[C@@H](CC(N)=O)C(=O)N[C@@H](CO)C(=O)N[C@@H](CCSC)C(=O)N[C@@H](CCC(=O)O)C(=O)N[C@@H](CCCN=C(N)N)C(=O)N[C@H](C(=O)N[C@@H](CCC(=O)O)C(=O)N[C@@H](Cc1c[nH]c2ccccc12)C(=O)N[C@@H](CC(C)C)C(=O)N[C@@H](CCCN=C(N)N)C(=O)N[C@@H](CCCCN)C(=O)N[C@@H](CCCCN)C(=O)N[C@@H](CC(C)C)C(=O)N[C@@H](CCC(N)=O)C(=O)N[C@@H](CC(=O)O)C(=O)N[C@H](C(=O)N[C@@H](Cc1cnc[nH]1)C(=O)N[C@@H](CC(N)=O)C(=O)N[C@@H](Cc1ccccc1)C(=O)O)C(C)C)C(C)C [hPTH1-34],,increased,increased only by hPTH1-34,equivalently increased,increased by both,5,increased,doubled,equivalently raised,increased by both,increased only by hPTH1-34,strongly increased
